Reference: patent EP4786487A1, “PEPTIDE” (Peptidream Inc, priority 2023, dated 2025)
Starred links: 1 amine or outer side, 2 acyl side, 3 side chain; linkers in the order of their positions; H or OH if unused. Positions of bridges follow the written chain, without caps; N, C: chain ends. Non-standard residues stand in square brackets, D forms with d. Residues, ends and D or L forms follow the SMILES beside them. Phe(3-OCH2COOH) = N[C@@H](Cc1cccc(OCC(=O)O)c1)C(=O)O; Phe(4-COOH) = N[C@@H](Cc1ccc(C(=O)O)cc1)C(=O)O; Gly(N(CH2)3COOH) = O=C(O)CCCNCC(=O)O; X1 = CCCCCCC[C@H](N[*:1])C(=O)[*:2]; NMeF = CN[C@@H](Cc1ccccc1)C(=O)O; NMeA = CN[C@@H](C)C(=O)O

Legend:
[1] = system: DBA/2 mdx model mice; experiment: Subcutaneously administered peptide, improvement of muscle strength in DBA/2 mdx mice; assay type: in vivo, DBA/2N-mdx mice; conditions: Fig. 5
Procedure: In this Example, the effect of the peptide Myostatin_99_v145 (SEQ ID NO: 30) was evaluated on improvement of muscle strength in DMD model mice.
To twenty-week-old female DBA/2N-mdx mice (Central Institute for Experimental Medicine and Life Science), Myostatin_99_v145 or solvent control (PBS) was subcutaneously administered once a week for 4 weeks as shown in Table 12. As a Comparative Example, a single intravenous dose of anti-latent myostatin antibody (GYM329-BS) was administered.
(§1) Using a smart-type grip strength meter for rats and mice (MK-380V; Muromachi Kikai Co., Ltd.), forelimb and hindlimb grip strength measurements were performed on the day of completion of the acclimation period (grouping day), and on Days 7, 14, 21, and 26. The measurements were conducted with individual identification numbers blinded so that the examiner was unaware of the test conditions of the mice. The grip strength was measured seven times consecutively, and the average of five points, excluding the two points: the highest and lowest values, was used as individual data.

[2] = system: B10-mdx mice; experiment: Orally administered peptide, improvement of muscle strength in B10-mdx mice; assay type: in vivo, C57BL/10-mdx/Jcl mice; conditions: oral administration 65 and 200 mg/kg once a week, 4 times, after fasting; Fig. 6
Procedure: In this Example, the effect of the peptide Myostatin_99_v145 (SEQ ID NO: 30) was evaluated on improvement of muscle strength when the peptide was orally administered to DMD model mice.
B10-mdx mice were used as the DMD model mice. To five-week-old female C57BL/10-mdx/Jcl mice (CLEA Japan, Inc.; NPL 17), the peptide or solvent control (Vehicle) PBS was subcutaneously administered once a week for 4 weeks. In addition, the peptide or the solvent control, namely 30% Labrasol/PBS, was administered orally to the DMD model mice once a week after fasting in a total of 4 times.
as §1, with “day; 5-week-old),” for “day),”, “Day 7 (6-week-old), Day 14 (7-week-old), Day 20 (8-week-old),” for “Days 7, 14, 21,”, “Day 27 (9-week-old).” for “26.”

[3] = biological target: T1, GDF-11 (Homo sapiens, UniProt O95390); experiment: Reporter gene assay for myostatin signaling in HepG2 cell line, Evaluation Procedure (1), GDF-11 inhibition; assay type: cell-based; conditions: Method A: GDF-11 10 ng/mL; read-out: IC50 (Luciferase) GDF-11 HepG2
T1 construct: purchased R&D systems 1958-GD-G8/CF
T1 sequence (O95390 299-407): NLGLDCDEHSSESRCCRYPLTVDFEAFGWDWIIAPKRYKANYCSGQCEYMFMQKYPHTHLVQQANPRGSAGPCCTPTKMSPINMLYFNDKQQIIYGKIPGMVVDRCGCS
Outline: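 HepG2 cells transfected with pGL3(CAGA)12-luciferase reporter, serum-starved in 0.1% BSA medium, then stimulated with myostatin or GDF-11 plus 4-fold peptide dilutions (0.006–100 nmol/L for myostatin, 0.12–2000 nmol/L for GDF-11) for 20–24 h at 37 °C. Luminescence read with One-Glo; IC50 calculated.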

With `CCCCCCC[C@@H]1NC(=O)[C@H](Cc2ccccc2)N(C)C(=O)[C@H](CCCNC(=N)N)NC(=O)[C@H](Cc2ccc(C(=O)O)cc2)NC(=O)[C@H](Cc2cccc(OCC(=O)O)c2)NC(=O)[C@H](C)N(C)C(=O)[C@H]([C@@H](C)CC)NC(=O)[C@H](Cc2ccccc2)N(C)C(=O)[C@H](Cc2ccc(O)cc2)NC(=O)[C@H](Cc2c[nH]c3ccccc23)NC(=O)[C@H](C)NC(=O)CN(CCCC(=O)O)C(=O)CSC[C@H](C(=O)O)NC(=O)[C@H](Cc2ccccc2)N(C)C(=O)[C@H](C)N(C)C1=O` [Myostatin_99_v145] ({CH2CO}-[Gly(N(CH2)3COOH)]AWY[NMeF]I[NMeA][Phe(3-OCH2COOH)][Phe(4-COOH)]R[NMeF][X1][NMeA][NMeF][dC]-OH; thioether N-15) the “time-course change in grip strength” value ([1]; 1 and 3 mg/kg subcutaneous once a week for 4 weeks, vs. PBS Vehicle group) was “continuous increase in grip strength was observed in a dose-dependent manner”, the “maximum effect (grip strength) compared with GYM329-BS” value ([1]; GYM329-BS 10 mg/kg single intravenous dose) was “higher than that of GYM329-BS” and the “time-course change in grip strength” value [2] was “continuous increase in grip strength was observed in a dose-dependent manner”. It also gave an IC50 [3] of 414 nM.
